Reference: US11879012B2, “Method of modulating cell proliferation” (METRO NORTH HOSPITAL AND HEALTH SERVICE, priority 2018, dated 2024)

What was measured:
[1] = tested on: microvascular endothelial cells (MEC); assay: MTT assay, metabolic response of microvascular endothelial cells; assay type: cell-based
Protocol: (§1) Measurement of mitochondrial enzyme activity by MTT conversion was utilised as an indirect assessment of metabolic and proliferative activity. MTT reagent was prepared by diluting the MTT stock solution (5 mg/mL) 1:10 in PBS (i.e., to a final concentration of 0.5 mg/mL MTT). Prior optimization of growth conditions (seeding density and duration in culture) was conducted to ensure sub-confluency at the time of measurement. For example, a seeding density of 10,000 cells per cm^2 and a culture period of 48-hours were routinely used. On the day of analysis, the culture medium was removed from each well and replaced with a fixed volume (0.5 mL per well of a 24 well plate) of MTT solution and incubated at 37° C. for 40 minutes. The MTT reagent was subsequently removed and the formazan product eluted by adding a fixed volume (300 μL per well of a 24 well plate) of acidified isopropanol (24.6 μL of concentrated HCL in 20 mL of isopropanol) to each well for approximately 5 minutes, 150 μL of the eluted stain from each well was then transferred into corresponding wells of a 96 well plate. The optical density was measured using a plate reader at 550 nm (background 620 nm). Microvascular endothelial cells (MEC) were cultured in MEC Culture Medium comprising 500 mL of MCDB-131 media containing 5 mL of 1M L-Glutamine, 5 Penicillin (10,000 IU/mL)/Streptomycin (10,000 ug/mL), 10% v/v foetal calf serum (FCS), 0.5 mL of 1 mg/mL hydrocortisone (Hc) and 0.5 mL of 10 ug/mL epidermal growth factor (EGF). Spent culture media was removed and the flask rinsed with 5 mL of phosphate buffered saline (without magnesium or calcium; PBSA). After 30 seconds, the PBSA was removed and 5 mL of 0.02% EDTA/0.05% trypsin reagent was added to the cells. The flask was then incubated at 37° C. for 5-8 minutes. The cells were then dislodged from the flask, removed and added to a 50 mL centrifuge tube containing an equal volume of culture media to neutralize the 0.02% EDTA/0.05% trypsin reagent. This tube was then centrifuged at 100 g for 5 minutes to form a pellet of cells. The supernatant was removed and the pellet of cells resuspended. The diluted cells were split 1:3 into new flasks containing culture media. The flasks were then placed in a humidified CO2 (5%) incubator at 37° C. until the cells were approximately 80% confluent. The process was repeated weekly. For the purpose of serum-free culturing, the MEC and LEC cells were serum starved by incubating them in serum-free MCDB-131 medium (Gibco/Life Technologies) for 12 hours. Limbal epithelial cells (LEC) were cultured in a similar manner to MEC in LEC Culture Medium comprising 500 mL of DMEM/F12 media containing 5 mL of 1M L-Glutamine, 5 mL of Pen (10,000 IU/mL)/Strep (10,000 ug/mL) and 10% FCS (v/v). Additional reagents used in these experiments are described below: • 0.02% EDTA/0.05% trypsin reagent: 5 mL of 2% EDTA solution and 10 mL of thawed 2.5% trypsin solution were added to 485 mL of PBSA, 50 mL aliquots were dispensed into 50 mL centrifuge tubes and stored below −20° C. • Pre-bound Collagen IV: 250 μL of Collagen IV stock solution was added to the wells of a 24 well tissue culture plate and allowed to dry completely over night in a biohazard cabinet. • Pre-bound Vitronectin: a vitronectin stock solution (2 mg/mL) was diluted in water to a final concentration of 5 μg/mL. […]

[2] = tested on: limbal epithelial cells (LEC); assay: MTT assay, metabolic response of limbal epithelial cells; assay type: cell-based; conditions: FIG. 8
Protocol: as §1, with “nm).” for “nm). Microvascular endothelial cells (MEC) were cultured in MEC Culture Medium comprising 500 mL of MCDB-131 media containing 5 mL of 1M L-Glutamine, 5 Penicillin (10,000 IU/mL)/Streptomycin (10,000 ug/mL), 10% v/v foetal calf serum (FCS), 0.5 mL of 1 mg/mL hydrocortisone (Hc) and 0.5 mL of 10 ug/mL epidermal growth factor (EGF).”, “(v/v).” for “(v/v). Additional reagents used in these experiments are described below: • 0.02% EDTA/0.05% trypsin reagent: 5 mL of 2% EDTA solution and 10 mL of thawed 2.5% trypsin solution were added to 485 mL of PBSA, 50 mL aliquots were dispensed into 50 mL centrifuge tubes and stored below −20° C. • Pre-bound Collagen IV: 250 μL of Collagen IV stock solution was added to the wells of a 24 well tissue culture plate and allowed to dry completely over night in a biohazard cabinet. • Pre-bound Vitronectin: a vitronectin stock solution (2 mg/mL) was diluted in water to a final concentration of 5 μg/mL.”

[3] = agent alone, serum-starved cells, 2 days, glucose 10 mg/mL, thrombin 100 IU/mL, FIG. 7
[4] = agent alone, serum-starved cells, 2 days, glucose 10 mg/mL, thrombin 100 IU/mL

thrombin
proliferation of MEC ([1]; 100 IU/mL thrombin with glucose, FIG. 7): stimulated proliferation of MEC in synergy with glucose, exceeding the positive control | proliferation of MEC [1, 3]: did not significantly stimulate proliferation of endothelium | proliferation of LEC [2, 4]: did not significantly stimulate proliferation | proliferation of LEC ([2]; glucose with thrombin): did not significantly stimulate proliferation

anti-thrombin III
proliferation of MEC ([1]; ATIII 10 IU/mL in the presence of thrombin (+glucose) and pre-bound PSGL-1, FIG. 9): stimulated the proliferation of MEC

B1: P-selectin: pre-bound recombinant human P-selectin (protein, UniProt P16109 42-830, looked up)
P-selectin: WTYHYSTKAYSWNISRKYCQNRYTDLVAIQNKNEIDYLNKVLPYYSSYYWIGIRKNNKTWTWVGTKKALTNEAENWADNEPNNKRNNEDCVEIYIKSPSAPGKWNDEHCLKKKHALCYTASCQDMSCSKQGECLETIGNYTCSCYPGFYGPECEYVRECGELELPQHVLMNCSHPLGNFSFNSQCSFHCTDGYQVNGPSKLECLASGIWTNKPPQCLAAQCPPLKIPERGNMTCLHSAKAFQHQSSCSFSCEEGFALVGPEVVQCTASGVWTAPAPVCKAVQCQHLEAPSEGTMDCVHPLTAFAYGSSCKFECQPGYRVRGLDMLRCIDSGHWSAPLPTCEAISCEPLESPVHGSMDCSPSLRAFQYDTNCSFRCAEGFMLRGADIVRCDNLGQWTAPAPVCQALQCQDLPVPNEARVNCSHPFGAFRYQSVCSFTCNEGLLLVGASVLQCLATGNWNSVPPECQAIPCTPLLSPQNGTMTCVQPLGSSSYKSTCQFICDEGYSLSGPERLDCTRSGRWTDSPPMCEAIKCPELFAPEQGSLDCSDTRGEFNVGSTCHFSCDNGFKLEGPNNVECTTSGRWSATPPTCKGIASLPTPGVQCPALTTPGQGTMYCRHHPGTFGFNTTCYFGCNAGFTLIGDSTLSCRPSGQWTAVTPACRAVKCSELHVNKPIAMNCSNLWGNFSYGSICSFHCLEGQLLNGSAQTACQENGHWSTTVPTCQAGPLTIQEALTYFGGAVASTIGLIMGGTLLALLRKRFRQKDDGKCPLNPHSHLGTYGVFTNAAFDPSP
thrombin-induced proliferation of MEC ([1]; pre-bound, in the presence of glucose, absence of collagen IV and vitronectin, FIG. 7): reduced the thrombin-induced proliferation of MEC

B2: PSGL-1: pre-bound selectin receptor, P-selectin glycoprotein ligand-1 (protein, UniProt Q14242 42-412, looked up)
P-selectin glycoprotein …: QATEYEYLDYDFLPETEPPEMLRNSTDTTPLTGPGTPESTTVEPAARRSTGLDAGGAVTELTTELANMGNLSTDSAAMEIQTTQPAATEAQTTQPVPTEAQTTPLAATEAQTTRLTATEAQTTPLAATEAQTTPPAATEAQTTQPTGLEAQTTAPAAMEAQTTAPAAMEAQTTPPAAMEAQTTQTTAMEAQTTAPEATEAQTTQPTATEAQTTPLAAMEALSTEPSATEALSMEPTTKRGLFIPFSVSSVTHKGIPMAASNLSVNYPVGAPDHISVKQCLLAILILALVATIFFVCTVVLAVRLSRKGHMYPVRNYSPTEMVCISSLLPDGGEGPSATANGGLSKAKSPGLTPEPREDREGDDLTLHSFLP
thrombin induced proliferation of LEC ([2]; pre-bound, in the presence of glucose): stimulated thrombin induced proliferation of LEC

B3: vitronectin: pre-bound basement membrane protein (protein, UniProt P04004 20-478, looked up)
Vitronectin: DQESCKGRCTEGFNVDKKCQCDELCSYYQSCCTDYTAECKPQVTRGDVFTMPEDEYTVYDDGEEKNNATVHEQVGGPSLTSDLQAQSKGNPEQTPVLKPEEEAPAPEVGASKPEGIDSRPETLHPGRPQPPAEEELCSGKPFDAFTDLKNGSLFAFRGQYCYELDEKAVRPGYPKLIRDVWGIEGPIDAAFTRINCQGKTYLFKGSQYWRFEDGVLDPDYPRNISDGFDGIPDNVDAALALPAHSYSGRERVYFFKGKQYWEYQFQHQPSQEECEGSSLSAVFEHFAMMQRDSWEDIFELLFWGRTSAGTRQPQFISRDWHGVPGQVDAAMAGRIYISGMAPRPSLAKKQRFRHRNRKGYRSQRGHSRGRNQNSRRPSRATWLSLFSSEESNLGANNYDDYRMDWLVPATCEPIQSVFFFSGDKYYRVNLRTRRVDTVDPPYPRSIAQYWLGCPAPGHL
proliferation of MEC [1, 3]: did not significantly stimulate proliferation of endothelium | proliferation of LEC [2, 4]: did not significantly stimulate proliferation
